Experimental data reported in article doi:10.1101/2022.09.19.508609v1 (biorxiv, 2022).

Key:
AgamOr29 + AgamOrco = target: T1, AgamOr29 + AgamOrco (Anopheles gambiae, UniProt A0A1S4H074); experiment: two-electrode voltage clamp, Xenopus oocytes; format: cell-based
T1 sequence (A0A1S4H074 1-384): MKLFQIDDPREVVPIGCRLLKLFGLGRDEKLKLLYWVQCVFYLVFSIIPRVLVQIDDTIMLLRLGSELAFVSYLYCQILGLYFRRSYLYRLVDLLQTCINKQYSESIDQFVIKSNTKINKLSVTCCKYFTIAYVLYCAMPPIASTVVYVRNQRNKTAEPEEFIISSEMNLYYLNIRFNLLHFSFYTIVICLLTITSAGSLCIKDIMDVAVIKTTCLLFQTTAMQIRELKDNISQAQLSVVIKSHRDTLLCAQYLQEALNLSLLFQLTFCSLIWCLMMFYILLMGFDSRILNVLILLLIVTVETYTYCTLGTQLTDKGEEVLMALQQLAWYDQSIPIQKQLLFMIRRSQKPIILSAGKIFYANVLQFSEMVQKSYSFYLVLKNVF
T1 sequence (Q7QCC7 1-478 partner): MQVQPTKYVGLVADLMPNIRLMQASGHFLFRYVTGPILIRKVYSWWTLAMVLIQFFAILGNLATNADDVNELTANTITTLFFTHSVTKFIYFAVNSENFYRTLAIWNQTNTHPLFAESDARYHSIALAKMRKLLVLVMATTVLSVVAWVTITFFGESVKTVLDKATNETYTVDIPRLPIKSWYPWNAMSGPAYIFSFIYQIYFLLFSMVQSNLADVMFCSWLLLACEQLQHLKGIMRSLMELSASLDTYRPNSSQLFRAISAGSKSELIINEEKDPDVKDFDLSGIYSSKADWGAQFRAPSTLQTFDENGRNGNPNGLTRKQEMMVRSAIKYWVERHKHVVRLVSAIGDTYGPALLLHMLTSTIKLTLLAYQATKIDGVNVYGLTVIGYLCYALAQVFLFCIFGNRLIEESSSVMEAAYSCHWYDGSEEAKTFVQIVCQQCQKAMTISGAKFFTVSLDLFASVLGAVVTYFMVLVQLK

AgamOr53 + AgamOrco = target: T2, AgamOr53 + AgamOrco (Anopheles gambiae, UniProt A0ABK8FS74); experiment: two-electrode voltage clamp, Xenopus oocytes; format: cell-based
T2 sequence (A0ABK8FS74 1-384): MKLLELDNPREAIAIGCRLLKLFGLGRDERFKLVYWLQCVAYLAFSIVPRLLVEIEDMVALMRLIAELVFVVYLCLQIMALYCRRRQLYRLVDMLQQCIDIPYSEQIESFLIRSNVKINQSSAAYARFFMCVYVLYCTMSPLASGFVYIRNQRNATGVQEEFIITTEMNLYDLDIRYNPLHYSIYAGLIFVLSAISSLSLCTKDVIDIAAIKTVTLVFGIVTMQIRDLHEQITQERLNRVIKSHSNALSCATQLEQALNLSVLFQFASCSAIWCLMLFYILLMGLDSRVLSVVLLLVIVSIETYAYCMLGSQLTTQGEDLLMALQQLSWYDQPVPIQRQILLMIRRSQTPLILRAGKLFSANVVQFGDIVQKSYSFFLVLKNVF
T2 sequence (Q7QCC7 1-478 partner): T1 sequence (Q7QCC7 1-478 partner)

SMILES	EC50 (AgamOr29 + AgamOrco)	EC50 (AgamOr53 + AgamOrco)
C=C[C@](C)(O)CCC=C(C)C [(R)-(–)-linalool]	14.7 µM	14.9 µM
C=C[C@@](C)(O)CCC=C(C)C [(S)-(+)-linalool]	7.1 µM	19.1 µM
